As usually defined, the IC50 is the concentration at which inhibition is half-maximal.

The structures appear in SMILES notation.

The values below come from US10781185B2, “Heterocyclic compounds for the inhibition of PASK” (BioEnergenix LLC, priority 2009, dated 2020).

Test [1] has as its target PASK (Homo sapiens (Human), UniProt Q96RG2). In words: PAS Kinase Luminescence Assay (Kinase-Glo). In kind it is biochemical. As to conditions: purified hPASK from insect cells, read-out: IC50 Kinase Domain. As to the method:
Biochemical Assay for hPASK Activity
PAS Kinase Luminescence Assay
One assay for purified hPASK activity utilizes the Kinase-Glo Luminescent Kinase Assay (Promega), which quantifies the amount of ATP remaining in solution following kinase reaction. The assay is carried out in a 96-well plate format and is performed by adding a volume of Kinase-Glo Reagent (Promega, catalog # V3771) equal to the volume of solution in the well of a completed kinase reaction. Kinase-Glo reagent contains Luciferase and its substrate. After addition to a kinase reaction it allows to measure luminescence. The amount of ATP left in solution at the time of Kinase-Glo Plus addition is directly proportional to the luminescence that is measured in each well, and inversely correlated with kinase activity.
Purified hPASK from insect cells (0.02 μg) is added to a 50 μL reaction mix containing 40 mM HEPES (pH 7.0), 100 mM KCl, 5 mM MgCl2, 1 mM DTT and […] of MBP protein. Inhibitory compounds are then added and the mixture is incubated for 10 min at 25° C. before adding 5 μL of ATP (at desired concentration). The reaction is allowed to proceed at 25° C. for 1 hour before adding 50 μL of Kinase-Glo reagent. The luminescence is measured as soon as 10 minutes after Kinase-Glo reagent is added.
Background: Kinase-Glo reads ATP consumption through a luciferase reaction.

For test [2], the target named is PASK (UniProt # Q96RG2; human recombinant N-terminal GST tagged construct, residues 879-1323) (Homo sapiens (Human), UniProt Q96RG2). Nature of the test: PASK ATP Radiochemical Assay. As to conditions: 33P-ATP radiochemical, Myelin Basic Protein substrate; read-out: IC50 Kinase Domain. In kind it is biochemical. As for the experimental part:
PASK ATP Radiochemical Assay
Test compounds in DMSO are then added and the mixture, followed by delivery of ^33P-ATP (specific activity 0.01 μCi/μl final) to initiate the reaction. […] The entire reaction mixture is washed through onto a P81 Phosphocellulose paper and washed three times for 10 minutes in 75 mM phosphoric acid and once in methanol prior to drying and scintillation counting.

Chain of PASK (UniProt # Q96RG2; human recombinant N-terminal GST tagged construct, residues 879-1323) (Homo sapiens (Human), UniProt Q96RG2) (Q96RG2 879-1323, change not shown): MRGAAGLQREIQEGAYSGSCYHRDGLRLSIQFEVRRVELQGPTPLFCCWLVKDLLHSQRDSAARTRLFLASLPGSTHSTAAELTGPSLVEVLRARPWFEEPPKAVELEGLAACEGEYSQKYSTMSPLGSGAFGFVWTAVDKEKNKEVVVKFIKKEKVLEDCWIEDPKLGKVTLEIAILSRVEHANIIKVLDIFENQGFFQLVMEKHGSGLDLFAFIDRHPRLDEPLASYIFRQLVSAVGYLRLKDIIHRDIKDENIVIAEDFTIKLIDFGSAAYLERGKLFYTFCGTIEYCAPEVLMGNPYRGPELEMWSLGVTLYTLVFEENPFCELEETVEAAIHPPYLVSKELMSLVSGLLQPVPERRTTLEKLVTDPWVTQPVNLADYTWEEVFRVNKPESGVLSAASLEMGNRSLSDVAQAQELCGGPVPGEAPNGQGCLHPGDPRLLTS
Chain of PASK (Homo sapiens (Human), UniProt Q96RG2) (Q96RG2 999-1251): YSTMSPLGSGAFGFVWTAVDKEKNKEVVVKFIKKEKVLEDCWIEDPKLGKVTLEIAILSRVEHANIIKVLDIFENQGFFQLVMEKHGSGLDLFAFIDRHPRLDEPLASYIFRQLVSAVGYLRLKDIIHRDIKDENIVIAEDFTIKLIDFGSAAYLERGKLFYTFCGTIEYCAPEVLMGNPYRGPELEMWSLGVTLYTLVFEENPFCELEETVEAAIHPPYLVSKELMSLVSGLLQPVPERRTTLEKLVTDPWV

As to `O=C(O)c1ccc2nc(N3CCC(c4ccc(C(F)(F)F)cc4)CC3)c(-c3ccc(F)cc3)nc2c1` [Example 29, 3-(4-Fluorophenyl)-2-(4-(4-(trifluoromethyl)phenyl)piperidin-1-yl)quinoxaline-6-carboxylic acid], the results for the 50% inhibitory concentration (IC50) on PASK [1] and at PASK [2] were less than 10 µM and more than 10 µM, respectively.

For the molecule `O=C(O)c1ccc2nc(N3CCC(c4ccccc4)CC3)c(N3CCC(c4ccccc4)CC3)nc2c1` [Example 30, 2,3-Bis(4-phenylpiperidin-1-yl)quinoxaline-6-carboxylic acid], the IC50 on PASK [1] and on PASK [2] was less than 10 µM each time.

For `COc1ccc(-c2nc3ccc(-c4nnn[nH]4)cc3nc2-c2ccc(OC)cc2)cc1` [Example 31, 2,3-Bis(4-methoxyphenyl)-6-(1H-tetrazol-5-yl)quinoxaline], the IC50 on PASK [1] and at PASK [2] was less than 10 µM throughout.
